Experimental findings from patent US20250127787A1, “METHODS FOR TREATING PERIPHERAL NEUROPATHY” (University of Pittsburgh - Of the Commonwealth System of …, priority 2021, published 2025) are described below.

In one assay the test system is inosine and guanosine. Put plainly: Purine levels (inosine, guanosine) in CYP-CIPN rat epidermis (footpad). Type of assay: in vivo. The settings on record: 8-AG 5 mg/kg/day in drinking water. The method, then:
(§1) Animals. This study employed female Harlan Sprague Dawley (HSD) rats (3-4 mo; Envigo, Indianapolis, IN) and were divided into the following groups: 1) Control, 2) Cyclophosphamide (CYP, 75 mg/kg i.p. in saline vehicle; administered on days 0, 3 and 6); 3) 8-aminoguanine (8-AG; 5 mg/kg/day in drinking water; beginning 2 weeks prior to CYP and continuing until sacrifice (day 8)). The dose of 8-AG is based on our preliminary and published experiments. […] The investigation conforms to the Guide for the Care and Use of Laboratory Animals published by the US National Institutes of Health (NIH Publication No. 85-23, revised 1996). In addition, all tissues (dorsal root ganglion, spinal cord, peripheral nerves and hindpaw epidermis) were removed from isoflurane anesthetized rats and the tissue was used for various experimental approaches as described below. At the end of tissue removal, animals were sacrificed by thoracotomy.

The subject of another assay is CYP—CIPN rats. Put plainly: Von Frey sensory testing in CYP-CIPN rats. The class given is in vivo, rat. To be noted: hindpaw, 8-AG 5 mg/kg/day in drinking water. How it is done:
as §1
Control, CYP and 8-AG-treated CYP rats were placed in an elevated chamber on a wire mesh floor and after acclimatization, calibrated von Frey microfilaments were applied to determine paw withdrawal threshold (PWT, in grams). Briefly, microfilaments (Stoelting Corp, USA) are applied with different forces perpendicularly to the plantar surface of both ipsilateral and contralateral hindpaw by increasing and decreasing stimulus intensity. […]

The next assay concerns PGP 9.5. Put plainly: PGP 9.5 immunocytochemistry of CYP-CIPN rat epidermis (nerve terminals, edema). The class given is in vivo. The settings on record: fluorescent images, oral 8-AG. The method, then:
as §1
Immunocytochemistry: A portion of tissues (a 3 mm biopsy from the rat hindpaw food pad or epidermis) is placed overnight in fixative (4% PFA) and cryoprotected (30% sucrose-phosphate buffered saline). Fluorescence immunocytochemistry was used to process cross-sections (20 μm) using antibodies (validated in rat tissue) against PGP 9.5 (Invitrogen PA5-29012, neuron specific protein; 1:500 dilution). […]

The subject of assay [1] is isolated mitochondria from spinal cord (L3-L5) homogenates. Put plainly: Mitochondrial respiration (respiratory control ratio) in CYP-CIPN rat spinal cord. The settings on record: oral 8-AG. Type of assay: in vivo. How it is done:
as §1
Mitochondrial Respiration. Homogenates (peripheral nerve and/or spinal cord) were used to measure mitochondrial respiration. Mitochondria were isolated as described earlier with modifications. […] The respiratory control ratio (RCR), a measure of the “tightness of coupling” between electron transport and oxidative phosphorylation, was determined from ratio of state 3 to state 4 rates of respiration. […]

A further assay deals with PNPase (Rattus norvegicus, UniProt P85973). The settings on record: single bolus 5 mg/kg.
PNPase, sequence (P85973 whole entry): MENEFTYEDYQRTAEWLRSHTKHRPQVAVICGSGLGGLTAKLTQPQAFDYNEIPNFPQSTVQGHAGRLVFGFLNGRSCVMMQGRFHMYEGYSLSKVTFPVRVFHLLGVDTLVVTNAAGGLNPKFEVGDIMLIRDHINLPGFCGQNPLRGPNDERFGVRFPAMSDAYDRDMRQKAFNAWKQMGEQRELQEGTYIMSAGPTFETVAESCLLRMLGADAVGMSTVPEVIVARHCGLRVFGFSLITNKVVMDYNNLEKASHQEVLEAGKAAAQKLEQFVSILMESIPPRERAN

“Also recorded” adds a separate entry of the source.

Procedure for PNPase: Rats were anesthetized with urethane (Sigma-Aldrich, St. Louis, MO) at 1.2 g/kg. A continuous infusion of 0.9% sterile saline at 25 ul/min was established via a catheter inserted into the jugular vein. A second catheter to the carotid artery was established in order to collect blood samples (200 μl) which were drawn into a 1 ml syringe prefilled with 50 U heparin. Blood samples were centrifuged at 1300 g for 10 minutes and supernatant (plasma) was then quickly frozen on dry ice and stored at −80° C. until assay. Urine samples were collected by a urethral catheter, centrifuged at 416 g for 10 minutes to remove sediment, and stored as above. Baseline blood samples and urine samples were collected followed by a single bolus of 8-aminoguanine (8-AG, 5 mg/kg) administered through the jugular catheter. Blood samples were collected after 15, 30, 60, 120 and 240 minutes. Urine samples were collected at 1, 2, 4 and 6 hours.
Purines in urine were measured by mass spectrometry using multiple reaction monitoring. Blood samples were diluted 1 to 30 with water, and heavy isotope internal standards were added to each sample. Purines were separated by reversed-phase ultra-performance liquid chromatography (Waters UPLC BEH C18 column, 1.7 μm beads; 2.1×150 mm; Milford, MA) and quantified by multiple reaction monitoring using a triple quadrupole mass spectrometer (TSQ Quantum-Ultra; ThermoFisher Scientific, San Jose, CA) with a heated electrospray ionization source. The mobile phase was a linear gradient flow rate (300 uL/min) of 1% acetic acid in water (pH, 3; mobile phase A) and 100% methanol (mobile phase B), and was delivered with a Waters Acquity ultra-performance liquid chromatographic system. The gradient (A/B) settings were: from 0 to 2 minutes, 99.6%/0.4%; from 2 to 3 minutes, to 98.0%/2.0%; from 3 to 4 minutes, to 85.0%/15.0%; from 4 to 6.5 minutes, to 99.6%/0.4%. The instrument parameters were: sample tray temperature, 10° C.; column temperature, 50° C.; ion spray voltage, 4.0 kilovolts; ion transfer tube temperature, 350° C.; source vaporization temperature, 320° C.; Q2 CID gas, argon at 1.5 mTorr; sheath gas, nitrogen at 60 psi; auxillary gas, nitrogen at 35 psi; Q1/Q3 width, 0.7/0.7 units full-width half-maximum; scan width, 0.6 units; scan time, 0.01 seconds. The following transitions (multiple reaction monitoring) were obtained: guanosine (284→152; RT=2.94 min); ^13C10, ^15N5-guanosine (299→162, RT=2.94 min); guanine (152→135; RT=1.48 min); ^13C2, ^15N-guanine (155→138, RT=1.48 min); hypoxanthine (137→119 m/z, RT=1.86 min); ^13C5-hypoxanthine (142→124 m/z, RT=1.86 min); aminoguanine (167→150 m/z, RT=1.50 min); ^13C2^15N-aminoguanine (170→153 m/z, RT=1.50 min).

Consider `Nc1nc2[nH]c(N)nc2c(=O)[nH]1` [8-AG, 8-Aminoguanine], for which, in the assay with inosine and guanosine, the “effect on CYP-induced decrease in guanosine levels” value is “normalizes; also recorded: completely restored” and the “effect on CYP-induced decrease in inosine levels” value is “normalizes; also recorded: completely restored”. Further, the “effect on CYP-induced increase in sensitivity to mechanical stimuli (paw withdrawal threshold)” value in the assay on CYP—CIPN rats was “restored to control values; also recorded: normalizes; also recorded: normalized to control conditions”. In the assay with PGP 9.5, the “effect on CYP-induced gross edema” value was “normalized” and the “effect on CYP-induced neural damage (ragged/damaged fine nerve terminals, PGP 9.5 distribution)” value is on record as “normalized”. For the same molecule, the “effect on CYP-induced decrease in respiratory control ratio (RCR)” value in assay [1] is on record as “reversed to values similar to Control; also recorded: prevented”. Moreover, on PNPase (rat urine), the “duration of sustained reduction in the ratio of urine guanosine to urine guanine” value was over 6 h, the “duration of sustained reduction in urine levels of hypoxanthine” value was over 6 h and the “hypoxanthine levels in the urine” value is listed as “decrease”. For the same molecule, the “duration of sustained inhibition of PNPase following a bolus dose” value on PNPase (rat) is over 6 h.
